# Reference: patent US12427183B2, “Methods of treating cancer, infectious disease, and autoimmune disease using chemokines” (New York Society for the Relief of the Ruptured and …, priority 2016, dated 2025)
# Key:
# pDCs of HDs = experiment: TLR gene expression in purified pDCs from HDs cultured with cytokines or chemokines (qPCR); assay type: cell-based, human; details: 24 hours; for induction of TLR8 expression on pDCs of HDs: purified pDCs from HDs, IFN-α and IFN-γ 10 ng/ml, IL-12 100 ng/ml, IL-6 5 ng/ml, IL-10 10 ng/ml, TNF 1 ng/ml, TGF-β 10 ng/ml
# Experimental: (§1) PBMCs were prepared using Ficoll-Paque density gradient from fresh blood under internal Institutional Review Board-approved protocols. pDCs were isolated as previously described (Guiducci et al. 2008) using either using negative depletion (Miltenyi Biotech) or following cell sorting using a BD IFNLUX cell sorter. As part of the gating strategy, neutrophils were excluded by FSC/SSC and cells positive for CD14 (CD3 and CD19 as well) were first excluded in order to prevent the contamination by TLR8 positive cells and then positively gated on HLA-DR, CD123 and BDCA4 to purify the pDCs. All BDCA4+ cells also express BDCA2 (results not shown). As a result, pure pDCs were obtained and no markers for neutrophils (CD66) or myeloid cells were found by PCR. B cells were FACS sorted as CD19+ and monocytes as CD14+ cells. PBMCs were depleted of pDCs using BDCA4 beads from Miltenyi. pDCs were cultured at 10,000-30,000 cells per well in a 96-round bottom plate and incubated at 37° C., 5% CO2 and 95% humidity. After 24 hours of culture, the supernatant was collected for ELISA or Mutiplex cytokine assays. In some culture conditions, cells were cultured with the PI3Kδ inhibitor, CAL-101 (Selleck chemicals) for 24 hours. The RNA-based TLR8 agonist, ORN8-L previously described (Guidacci et al. 2013) was synthetized by Chemgenes Corporation. For the TLR8 activation assay, pDCs were incubated in complete media alone, 200 μg/ml ORN8-L in complete media or 200 μg/ml ORN8-L+ 10 μg/ml CXCL4 (R&D systems).
# PCR reactions were performed as described previously with 10 ng of cDNA (Barrat et al. 2005). In brief, RNA was extracted from cells using the Qiagen RNeasy Mini Kit. Quantity of RNA was measured by Nanodrop and high-capacity cDNA Reverse Transcription kit was used to generate 20-50 ng cDNA. Gene expression levels were calculated based on relative threshold cycle (Ct) values. This was done using the formula Relative Ct=100×1.8 (HSK-GENE), where HSK is the mean CT of duplicate housekeeping gene runs (we used Ubiquitin), GENE is the mean CT of duplicate runs of the gene of interest, and 100 is arbitrarily chosen as a factor to bring all values above 0.
# In particular, CXCL4 or IP-10 (two CXCR3B agonists) (10 μg/ml each) had no impact on TLR8 nor TLR7 and TLR9 expression levels in pDCs (FIG. 2C).
# [1] = test system: purified pDCs from HDs or SSc patients; experiment: IFN production by purified pDCs cultured with chemokine alone; assay type: cell-based, human; details: chemokine 10 μg/ml without CpG, results not shown
# Experimental: as §1
# Supernatant from pDCs 24 hour culture was used for quantification of secreted chemokines and cytokines and measured with the use of an enzyme-linked immunosorbent assay (ELISA) or Luminex multiplex-beads immunoassay. CXCL4 ELISA (Ray Biotech) and IFNα, IP-10, IL-6, TNF Luminex assay (Millipore) was performed according to the manufacturer's protocol. Due to the variability in the number of cells obtained from the different patients and so we could compare the values across donors, all results were normalized to 10,000 cells. Of note, for all donors, pDCs were plated between 10,000-30,000 cells.
# When purified pDCs from HDs or SSc patients were cultured with CXCL4 alone ([…]), there was no effect on IFN production.
# (§2) 5×10^5 PBMCs or pDC-depleted PBMCs were cultured in 96 wells plate and stimulated with 0.25 μM CpG DNA with or without 10 μg/ml CXCL4, CXCL10, CXCL12 or CCL5. Freshly isolated pDCs were resuspended at 5×10^4 cells/100 μl RPMI 1640 medium (Gibco) and stimulated with the 0.25 μM CpG with/without 10 μg/ml indicated chemokines. The supernatant was harvested after 18 h and IFN-α was measured by ELISA.
# [2] = test system: TLR9-mediated activation of pDCs; experiment: TLR9-mediated activation of purified pDCs (CpG with or without chemokines), IFN-α ELISA; assay type: cell-based, human; details: for IFNα production from TLR9 in pDCs from HDs / TLR9-induced response (IFN-α secretion) by pDCs: CpG 0.25 μM; for IFNα production from TLR9 in pDCs from HDs: chemokine 10 μg/ml (Example 9); for TLR9-induced response (IFN-α secretion) by pDCs: chemokine 10 μg/ml (Example 17); for dependence of IFN-α superinduction on chemokine receptors: with AMG487 100 nM, AMD3100 10 μg/ml, anti-CXCR7 11G8 10 μg/ml, J113863 1.5 μM or Vicriviroc 0.1 μM
# [3] = test system: TLR9-mediated activation of human B cells; experiment: TLR9-mediated activation of human B cells (CpG with or without chemokines); assay type: cell-based; details: chemokine 10 μg/ml; for activation of B cells via TLR9 as shown by the production of IL-6: CpG 0.15 μM, ELISA
# Experimental: as §1
# IL-6, TNF, and IL-10 gene levels were measured at 6 hours post culture using PCR. The secretion of cytokines/chemokines in the supernatants was quantified using Luminex. CD83, CD80, CD86 and CD69 expression was measured by flow cytometry at 24 hour post culture.
# Human B cells were purified and cultured for 6 hours or 24 hours either with medium only, with CpG-C (at 0.15 μM) alone or with a combination of CpG-C and CXCL4 (at 10 μg/ml). IL-6 gene levels was measured at 6 hour post culture by PCR and CD83, CD80, CD86 and CD69 expression was measured by flow cytometry at 24 hour post culture.
# Purified B cells from HDs were cultured in media alone (control), with either a CpG TLR9 agonist (0.15 μM) or with CpG and either CXCL4, CXCL10, CXCL9, CXCL4, CXCL7 or CXCL12 (all at 10 μg/ml). IL-6 was quantified in the supernatants by ELISA.
# Purified B cells from HDs were cultured in media alone (control), with either a CpG TLR9 agonist (0.25 μM) or with CpG and CXCL4 or CXCL10 (10 μg/ml) alone or in the presence of the CXCR3 inhibitor AMG487 at 0, 0.1, 1 or 10 μM for 6 hours or 24 hours. IL-6 was quantified by ELISA at 24 hours and IL-6 and TNF gene expression levels were quantified by q-PCR at 6 hours and CD83, CD80, CD86 and CD69 expression was measured by flow cytometry at 24 hours post culture.
# [4] = test system: PBMCs and pDC-depleted PBMCs; experiment: IFN-α production in PBMCs and pDC-depleted PBMCs cultured with CpG and chemokines (ELISA); assay type: cell-based, human; details: CpG 0.25 μM + chemokine 10 μg/ml
# Experimental: PBMCs were prepared using Ficoll-Paque density gradient (GE Healthcare) as previously described (Guiducci et al., 2008).
# pDCs were isolated from PBMCs by positive selection using BDCA4-MicroBead Kit as previously described (Guiducci et al., 2008). pDC-depleted PBMC were prepared by removing BDCA4-positive cells from PBMC using microbeads.
# as §2
# As shown above, CXCL4 can increase IFN-α production by TLR9-activated pDCs. Thus it was tested whether other chemokines may impact TLR9 signaling in pDCs. Purified pDCs were left unstimulated (Unstim.) or cultured with CpG (0.25 μM) alone or with the indicated chemokines at 10 μg/ml. IFN-α secretion was quantified by ELISA. Strikingly, it was observed that a set of chemokines, including CXCL4, CXL10, CXCL12 and CCL5, were able to superinduce TLR9-induced response by pDCs (FIG. 18A), while they had no effect when used alone (results not shown). […] This also raised questions as to the specificity and mechanism for this effect. First, as other DNA sensors have been described to induce IFN-α in immune cells (Barrat et al., 2016), it was tested to see if these chemokines altered the specificity of the CpGs for TLR9 and if the IFN-α response was restricted to pDCs. Total PBMCs or PBMCs where pDCs were depleted (PBMC-ΔpDCs) were incubated with CpGs and either CXCL4, CXCL10, CXCL12 or CCL5 and IFN-α production was quantified by ELISA.
molecule,measurement,setting,value
IFN-α,induction of TLR8 expression on pDCs of HDs,pDCs of HDs,none of these molecules could induce TLR8
"CXCL12: stromal cell-derived factor-1, small chemokine belonging to the CXC chemokine family","IFN-α secretion by pDCs, chemokine used alone",[1],no effect
same,IFNα production from TLR9 in pDCs from HDs,[2],potentiated
same,TLR9-induced response (IFN-α secretion) by pDCs,[2],superinduce
same,dependence of IFN-α superinduction on chemokine receptors,[2],independent of their chemokine receptors
same,activation of B cells via TLR9 as shown by the production of IL-6,[3],inhibited
same,IFN-α production in absence of the pDCs (PBMC-ΔpDCs versus total PBMCs),[4],dramatic decrease
heparin [reference compound],"superinduction of IFN-α by all four chemokines (CXCL4, CXCL10, CXCL12, CCL5)","[2]; heparin 1 U/ml, CpG-activated pDCs",reduced
TGF-β,induction of TLR8 expression on pDCs of HDs,pDCs of HDs,none of these molecules could induce TLR8
IL-6: cytokine added to pDC culture at 5 ng/ml,induction of TLR8 expression on pDCs of HDs,pDCs of HDs,none of these molecules could induce TLR8
CXCL10: small chemokine belonging to the CXC chemokine family and a ligand for the receptor CXCR3,"TLR8, TLR7 and TLR9 expression levels in pDCs","pDCs of HDs; 10 μg/ml each, pDCs from HDs",no impact
same,"IFN-α secretion by pDCs, chemokine used alone",[1],no effect
same,IFNα production from TLR9 in pDCs from HDs,[2],potentiated
same,TLR9-induced response (IFN-α secretion) by pDCs,[2],superinduce
same,dependence of IFN-α superinduction on chemokine receptors,[2],independent of their chemokine receptors
same,effect of inhibition of CXCR3 on the chemokine's inhibition of TLR9 in B cells,"[3]; CXCR3 inhibitor AMG487 0.1, 1 or 10 μM, CpG 0.25 μM, 6 or 24 hours",no effect
same,activation of B cells via TLR9 as shown by the production of IL-6,[3],inhibited
same,IFN-α production in absence of the pDCs (PBMC-ΔpDCs versus total PBMCs),[4],dramatic decrease
CCL5: small chemokine belonging to the CC chemokine family,"IFN-α secretion by pDCs, chemokine used alone",[1],no effect
same,TLR9-induced response (IFN-α secretion) by pDCs,[2],superinduce
same,dependence of IFN-α superinduction on chemokine receptors,[2],independent of their chemokine receptors
same,IFN-α production in absence of the pDCs (PBMC-ΔpDCs versus total PBMCs),[4],dramatic decrease
"CXCL9: belongs to the CXC chemokine family, also known as MIG (protein, UniProt Q07325 23-125, looked up) C-X-C motif chemokine 9: TPVVRKGRCSCISTNQGTIHLQSLKDLKQFAPSPSCEKIEIIATLKNGVQTCLNPDSADVKELIKKWEKQVSQKKKQKNGKKHQKKKVLKVRKSQRSRQKKTT",activation of B cells via TLR9 as shown by the production of IL-6,[3],inhibited
"IL-12: cytokine added to pDC culture at 100 ng/ml (protein, UniProt P29459 23-219; P29460 23-328, looked up) Interleukin-12 subunit alpha: RNLPVATPDPGMFPCLHHSQNLLRAVSNMLQKARQTLEFYPCTSEEIDHEDITKDKTSTVEACLPLELTKNESCLNSRETSFITNGSCLASRKTSFMMALCLSSIYEDLKMYQVEFKTMNAKLLMDPKRQIFLDQNMLAVIDELMQALNFNSETVPQKSSLEEPDFYKTKIKLCILLHAFRIRAVTIDRVMSYLNAS Interleukin-12 subunit beta: IWELKKDVYVVELDWYPDAPGEMVVLTCDTPEEDGITWTLDQSSEVLGSGKTLTIQVKEFGDAGQYTCHKGGEVLSHSLLLLHKKEDGIWSTDILKDQKEPKNKTFLRCEAKNYSGRFTCWWLTTISTDLTFSVKSSRGSSDPQGVTCGAATLSAERVRGDNKEYEYSVECQEDSACPAAEESLPIEVMVDAVHKLKYENYTSSFFIRDIIKPDPPKNLQLKPLKNSRQVEVSWEYPDTWSTPHSYFSLTFCVQVQGKSKREKKDRVFTDKTSATVICRKNASISVRAQDRYYSSSWSEWASVPCS",induction of TLR8 expression on pDCs of HDs,pDCs of HDs,none of these molecules could induce TLR8
"IL-10: cytokine added to pDC culture at 10 ng/ml (protein, UniProt P22301 19-178, looked up) Interleukin-10: SPGQGTQSENSCTHFPGNLPNMLRDLRDAFSRVKTFFQMKDQLDNLLLKESLLEDFKGYLGCQALSEMIQFYLEEVMPQAENQDPDIKAHVNSLGENLKTLRLRLRRCHRFLPCENKSKAVEQVKNAFNKLQEKGIYKAMSEFDIFINYIEAYMTMKIRN",induction of TLR8 expression on pDCs of HDs,pDCs of HDs,none of these molecules could induce TLR8
"IFN-γ: cytokine added to pDC culture at 10 ng/ml (protein, UniProt P01579 24-161, looked up) Interferon gamma: QDPYVKEAENLKKYFNAGHSDVADNGTLFLGILKNWKEESDRKIMQSQIVSFYFKLFKNFKDDQSIQKSVETIKEDMNVKFFNSNKKKRDDFEKLTNYSVTDLNVQRKAIHELIQVMAELSPAAKTGKRKRSQMLFRG",induction of TLR8 expression on pDCs of HDs,pDCs of HDs,none of these molecules could induce TLR8
